For three molecules, Activity, EC50 and Stability results are on record in ChEMBL document CHEMBL6121035, “An Unexpected Activity of a Minor Cannabinoid: Cannabicyclol (CBL) Is a Potent Positive Allosteric Modulator of Serotonin 5-HT1A Receptor” (J Nat Prod, 2025).

Data set [1] concerns the target T1, 5-hydroxytryptamine receptor 1A (Homo sapiens) (UniProt P08908).
T1 sequence (whole entry): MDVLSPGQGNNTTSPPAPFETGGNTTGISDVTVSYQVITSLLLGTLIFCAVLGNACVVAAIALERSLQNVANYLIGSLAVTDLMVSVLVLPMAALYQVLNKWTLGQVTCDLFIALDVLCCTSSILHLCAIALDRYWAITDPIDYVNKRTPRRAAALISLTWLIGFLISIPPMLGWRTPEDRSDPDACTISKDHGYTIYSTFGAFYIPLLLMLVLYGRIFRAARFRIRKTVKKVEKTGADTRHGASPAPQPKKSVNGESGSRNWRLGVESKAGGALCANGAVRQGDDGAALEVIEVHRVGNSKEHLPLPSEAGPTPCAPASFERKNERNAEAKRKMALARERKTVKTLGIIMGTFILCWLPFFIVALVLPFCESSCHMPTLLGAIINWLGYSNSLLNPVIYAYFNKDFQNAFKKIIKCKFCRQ
As to the kind of experiment: Positive allosteric modulation of N-terminal FLAG-tagged Rluc8-fused human 5-HT-1A expressed in HEK293T cells by BRET assay relative to control. Format: cell-based.

The target of the next data set is Spike glycoprotein (Severe acute respiratory syndrome coronavirus 2, UniProt P0DTC2). Kind of data set: Inhibition of SARS-COV-2 spike protein.
Data set [2] can be described thus: Stability of compound in MCT oil at 40 degreeC measured upto 2 months by HPLC-DAD analysis. Format: physicochemical. Particulars: 1460 h.
Data set [3] is described as follows: Stability of compound at 25 degreeC measured upto 2 months by HPLC-DAD analysis. The class given is physicochemical. The settings on record: 1460 h.
The target in data set [4] is Cannabinoid receptor 1 (Homo sapiens) (UniProt P21554). Kind of data set: Displacement of [3H]-CP55940 from cannabinoid CB1 receptor (unknown origin) at 1 to 10 uM incubated for 90 mins by Radioligand binding assay. Particulars: dose 1-10 µM.
Data set [5] deals with Cannabinoid receptor 2 (Homo sapiens) (UniProt P34972). Kind of data set: Displacement of [3H]-CP55940 from cannabinoid CB2 receptor (unknown origin) at 1 uM incubated for 90 mins by Radioligand binding assay. For orientation: In a radioligand displacement assay an active substance lowers the binding of a labelled ligand.
In data set [6] the target is T1, 5-hydroxytryptamine receptor 1A (Homo sapiens). As to the kind of experiment: Displacement of [3H]-8-Hydroxy-DPAT from 5-HT-1A receptor (unknown origin) at 1 uM incubated for 90 mins by Radioligand binding assay relative to control.
The target is the same in data set [7]. Kind of data set: Agonist activity at PK-tagged human 5-HT-1A receptor expressed in CHO-K1 cells at > 0.5 uM incubated for 90 mins by measuring beta-arrestin recruitment by PathHunter assay. Particulars: filed as agonist. Format: functional, cell-based. (In general: Recruitment of arrestin is a read-out of receptor activation apart from second messengers.)

Data set [8] shares this target. Kind of data set: Agonist activity at PK-tagged human 5-HT-1A receptor expressed in CHO-K1 cells at 12 uM incubated for 90 mins by measuring beta-arrestin recruitment by PathHunter assay relative to control. Format: functional, cell-based.
For data set [9] the target is unchanged. As to the kind of experiment: Positive allosteric modulation of PK-tagged human 5-HT-1A receptor expressed in CHO-K1 cells assessed as receptor activation at 50 nM in presence of serotonin at 40 nM preincubated with compound for 30 mins followed by serotonin addition and measured after 90 mins by measuring beta arrestin recruitment by chemiluminescence based envision reader analysis. Format: functional, cell-based. Particulars: filed as positive allosteric modulator, time 120.0 min.

Data set [10] has the same target. As to the kind of experiment: Positive allosteric modulation of PK-tagged human 5-HT-1A receptor expressed in CHO-K1 cells assessed as receptor activation in presence of serotonin preincubated with compound for 30 mins followed by serotonin addition and measured after 90 mins by measuring beta arrestin recruitment by chemiluminescence based envision reader analysis. Format: functional, cell-based. Particulars: filed as positive allosteric modulator, dose 0.6-12000 nM.

Data set [11] has the same target. Kind of data set: Positive allosteric modulation of PK-tagged human 5-HT-1A receptor expressed in CHO-K1 cells assessed as receptor activation at 4 uM in presence of serotonin preincubated with compound for 30 mins followed by serotonin addition and measured after 90 mins by measuring beta arrestin recruitment by chemiluminescence based envision reader analysis relative to control. Format: functional, cell-based. The settings on record: filed as positive allosteric modulator.

The target is the same in data set [12]. Kind of data set: Positive allosteric modulation of PK-tagged human 5-HT-1A receptor expressed in CHO-K1 cells assessed as receptor activation at 12 uM in presence of serotonin preincubated with compound for 30 mins followed by serotonin addition and measured after 90 mins by measuring beta arrestin recruitment by chemiluminescence based envision reader analysis. Format: functional, cell-based.

Data set [13] shares this target. As to the kind of experiment: Positive allosteric modulation of PK-tagged human 5-HT-1A receptor expressed in CHO-K1 cells assessed as receptor activation at 1 uM in presence of serotonin at 175 nM preincubated with compound for 30 mins followed by serotonin addition and measured after 90 mins by measuring beta arrestin recruitment by chemiluminescence based envision reader analysis relative to control. The class given is functional, cell-based. Particulars: filed as positive allosteric modulator.

For data set [14] the target is unchanged. As to the kind of experiment: Positive allosteric modulation of PK-tagged human 5-HT-1A receptor expressed in CHO-K1 cells assessed as receptor activation at > 10 uM in presence of serotonin at 175 nM preincubated with compound for 30 mins followed by serotonin addition and measured after 90 mins by measuring beta arrestin recruitment by chemiluminescence based envision reader analysis. Format: functional, cell-based.

Calls of active or inactive are those of the source. The rule behind the calls is not given here.

Chain of Cannabinoid receptor 1 (Homo sapiens) (P21554 whole entry): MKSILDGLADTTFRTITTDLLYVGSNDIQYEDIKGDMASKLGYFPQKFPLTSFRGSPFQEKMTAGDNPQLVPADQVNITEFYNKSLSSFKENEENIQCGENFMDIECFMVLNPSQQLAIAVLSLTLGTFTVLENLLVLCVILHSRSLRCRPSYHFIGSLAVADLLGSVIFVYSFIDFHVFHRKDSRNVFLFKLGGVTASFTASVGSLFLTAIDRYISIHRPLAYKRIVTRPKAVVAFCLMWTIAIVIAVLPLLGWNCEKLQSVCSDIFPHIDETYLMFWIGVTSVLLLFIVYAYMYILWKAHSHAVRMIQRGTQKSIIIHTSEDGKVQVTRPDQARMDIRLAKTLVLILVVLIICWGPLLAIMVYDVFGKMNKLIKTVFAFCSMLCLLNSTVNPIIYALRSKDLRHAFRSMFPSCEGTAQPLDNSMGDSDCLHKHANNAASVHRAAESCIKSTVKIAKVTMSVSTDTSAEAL
Chain of Cannabinoid receptor 2 (Homo sapiens) (P34972 whole entry): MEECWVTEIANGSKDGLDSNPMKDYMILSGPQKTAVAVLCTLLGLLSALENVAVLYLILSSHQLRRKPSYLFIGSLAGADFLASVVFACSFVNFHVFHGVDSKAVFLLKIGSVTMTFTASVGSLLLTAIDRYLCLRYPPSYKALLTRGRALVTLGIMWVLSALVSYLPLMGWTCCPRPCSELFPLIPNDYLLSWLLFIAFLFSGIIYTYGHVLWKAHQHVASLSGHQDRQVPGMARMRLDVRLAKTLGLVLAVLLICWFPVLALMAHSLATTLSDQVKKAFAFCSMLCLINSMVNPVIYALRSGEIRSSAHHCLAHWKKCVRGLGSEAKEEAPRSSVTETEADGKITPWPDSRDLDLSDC

In turn, `CCCCCn1cc(C(=O)c2cccc3ccccc23)c2ccccc21` gave an Activity in data set [1] of 12%.

`O=C(c1cccc2ccccc12)c1cn(CCCCCF)c2ccccc12` gave an Activity in [1] of 21%.

Regarding `CCCCCc1cc(O)c2c(c1)OC1(C)CCC3C1C2C3(C)C` (racemic) [CANNABICYCLOL], at Spike glycoprotein, a half-maximal response (EC50) required 10.8 µM. Also, the Stability result in data set [2] and in data set [3] was “Stable” in each case. For the same molecule, the outcome in data set [4], in [5], in data set [12] and in data set [14] was inactive. The Activity in data set [6] is 20%; in data set [7], “Active; Minimal Agonist Activity Observed”; in data set [8], 15%; in data set [10], “Dose-dependent-effect”; in data set [11], 80%; in data set [13] it was 100%. Moreover, the outcome in data set [9] was Active.

By EC50 is commonly meant the midpoint of the concentration-response curve. High values mean lower potency in that assay, low ones higher potency in that assay.
